Read-outs that look alike come from different tables or passages of the source.
What was measured:
recombinant BRD4 BD2 = biological target: T1, recombinant BRD4 BD2 (Homo sapiens, UniProt O60885); assay: Competitive fluorescence-polarization (FP) binding assay, BRD4 BD2
T1 construct: for recombinant BRD4 BD1 and BRD4 BD2 proteins

MDA-MB-231 = assay: Cell growth inhibition, 4-day proliferation assay, MDA-MB-231; assay type: cell-based; conditions: Homo sapiens
Outline: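 WST-8 colorimetric read-out (absorbance 450 nm after 1-2 h) after 4-day compound exposure of 3,000-10,000 cells/well at 37 °C; IC50 from variable-slope sigmoid fit of DMSO-normalized signal.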

recombinant BRD4 BD1 = biological target: T2, recombinant BRD4 BD1 (Homo sapiens, UniProt O60885); assay: Competitive fluorescence-polarization (FP) binding assay, BRD4 BD1
T2 construct: for recombinant BRD4 BD1 and BRD4 BD2 proteins
Procedure: Fluorescence Polarization (FP) competitive binding studies were carried out using a FAM labeled fluorescent probe, see, e.g., Cpd. No. 350 of US 2014/0256706, to determine binding affinities of representative Compounds of the Disclosure for recombinant BRD4 BD1 and BRD4 BD2 proteins. Equilibrium dissociation constants (Kd) values of the fluorescent probe to BRD4 BD1 and BD2 proteins were determined from protein saturation experiments by monitoring the total fluorescence polarization of mixtures composed with the fluorescent probe at a fixed concentration and proteins with increasing concentrations up to full saturation. Serial dilutions of testing proteins were mixed with the fluorescent probe to a final volume of 200 μl in the assay buffer (100 mM phosphate buffer, pH=6.5, 0.01% Triton X-100 (Sigma, 282103) being added right before assays). Final fluorescent probe concentration was 1.5 nM for both proteins. Plates were incubated at room temperature for 30 minutes with gentle shaking to assure equilibrium. FP values in millipolarization units (mP) were measured using the Infinite M-1000 plate reader (Tecan U.S., Research Triangle Park, N.C.) in Microfluor 1 96-well, black, round-bottom plates (Thermo Scientific, Waltham, Mass.) at an excitation wavelength of 485 nm and an emission wavelength of 530 nm. Kd values of the fluorescent probe, which were calculated by fitting the sigmoidal dose-dependent FP increases as a function of protein concentrations using Graphpad Prism 6.0 software (Graphpad Software, San Diego, Calif.), are 5.5 and 3.0 nM to BDR4 BD1 and 2, respectively.
The IC50 and Ki values of compounds were determined in a competitive binding experiment. See US 2014/0256706. Mixtures of 10 μl of the tested compounds in assay buffer with 40% Ethylene Glycol and 190 μl of preincubated protein/probe complex solution in the assay buffer (100 mM potassium phosphate, pH 6.5, 0.01% Triton X-100) were added into assay plates which were incubated at room temperature for 30 minutes with gentle shaking. Final concentrations of proteins were 10 and 6 nM in assays for BRD4 BD1 and BD2, respectively. Final probe concentration is 1.5 nM in both assays. Negative controls containing protein/probe complex only (equivalent to 0% inhibition), and positive controls containing only free probes (equivalent to 100% inhibition), were included in each assay plate. FP values were measured as described above. IC50 values were determined by nonlinear regression fitting of the competition curves. Instead of being calculated from IC50 values as described before. Ki values of competitive inhibitors were obtained directly by nonlinear regression fitting as well, based upon the Kd values of the probe to different proteins, and concentrations of the proteins and probes in the competitive assays (US 2014/0256706; Wang, FEBS Lett. 360:111 (1995); Zhang et al., Analytical Biochemistry, 331:138 (2004)).
Representative compounds in Table 5 were evaluated for their binding affinities to BRD4 BD1 and BD2 proteins using the Competitive Fluorescence-Polarization (FP) Assays described in Example 6, with the data included in Table 6.

MOLM-13 = assay: Cell growth inhibition, 4-day proliferation assay, MOLM-13; assay type: cell-based; conditions: Homo sapiens
[1] = competitive FP, Table 6, read-out: IC50 as determinined in FP assays BRD4 BD2
[2] = MDA-MB-231, WST-8 assay, Table 7, read-out: Cell growth inhibition (IC50 (nM)) MDA-MB-231
[3] = competitive FP, Table 6, read-out: IC50 as determinined in FP assays BRD4 BD1
[4] = MOLM-13, WST-8 assay, Table 7, read-out: Cell growth inhibition (IC50 (nM)) MOLM-13
[5] = MOLM-13, 96 h, read-out: Cell IC50 (nM) MOLM13

| Structure (SMILES) | IC50 (recombinant BRD4 BD2; [1]) [nM] | IC50 (MDA-MB-231; [2]) [nM] | IC50 (recombinant BRD4 BD1; [3]) [nM] | IC50 (MOLM-13; [4]) [nM] | IC50 (recombinant BRD4 BD2) [nM] | IC50 (MDA-MB-231; MDA-MB-231, read-out: Cell growth inhibition (IC50 (nM)) MDA-MB-231) [nM] | IC50 (recombinant BRD4 BD1) [nM] | IC50 (MOLM-13; [5]) [nM] |
| --- | --- | --- | --- | --- | --- | --- | --- | --- |
| Cc1c(C#Cc2ccc(N)nc2)sc2c1C(c1ccc(Cl)cc1)=N[C@@H](CC(N)=O)c1nnc(C)n1-2 [Compound 121, (S)-2-(2-((6-aminopyridin-3-yl)ethynyl)-4-(4-chlorophenyl)-3,9-dimethyl-6H-thieno[3,2-f][1,2,4]triazolo[4,3-a][1,4]diazepin-6-yl)acetamide] | 8.4 | 21.9 | 10.6 | 4.76 | – | – | – | – |
| Cc1c(C#Cc2ccccn2)sc2c1C(c1ccc(Cl)cc1)=N[C@@H](Cc1nnc(C(C)C)o1)c1nnc(C)n1-2 [Compound 135, (S)-2-((4-(4-chlorophenyl)-3,9-dimethyl-2-(pyridin-2-ylethynyl)-6H-thieno[3,2-f][1,2,4]triazolo[4,3-a][1,4]diazepin-6-yl)methyl)-5-isopropyl-1,3,4-oxadiazole] | 45 | 24.5 | 10 | 13.8 | – | – | – | – |
| Cc1c(C#Cc2cccnc2)sc2c1C(c1ccc(Cl)cc1)=N[C@@H](CC(=O)OC(C)(C)C)c1nnc(C)n1-2 [Compound 111, tert-butyl (S)-2-(4-(4-chlorophenyl)-3,9-dimethyl-2-(pyridin-3-ylethynyl)-6H-thieno[3,2-f][1,2,4]triazolo[4,3-a][1,4]diazepin-6-yl)acetate] | 17 | 98.6 | 4.8 | 32.7 | – | – | – | – |
| Cc1c(C#Cc2cccnc2)sc2c1C(c1ccc(Cl)cc1)=N[C@@H](CC(=O)N1CCC(O)CC1)c1nnc(C)n1-2 [Compound 117, (S)-2-(4-(4-chlorophenyl)-3,9-dimethyl-2-(pyridin-3-ylethynyl)-6H-thieno[3,2-f][1,2,4]triazolo[4,3-a][1,4]diazepin-6-yl)-1-(4-hydroxypiperidin-1-yl)ethan-1-one] | 10.4 | 79.6 | 6.3 | 19.8 | – | – | – | – |
| Cc1c(C#Cc2ccccn2)sc2c1C(c1ccc(Cl)cc1)=N[C@@H](CC(=O)N1CC3(COC3)C1)c1nnc(C)n1-2 [Compound 124, (S)-2-(4-(4-chlorophenyl)-3,9-dimethyl-2-(pyridin-2-ylethynyl)-6H-thieno[3,2-f][1,2,4]triazolo[4,3-a][1,4]diazepin-6-yl)-1-(2-oxa-6-azaspiro[3.3]heptan-6-yl)ethan-1-one] | 62 | 86.3 | 10.9 | 57.4 | – | – | – | – |
| Cc1c(C#Cc2ccccn2)sc2c1C(c1ccc(Cl)cc1)=N[C@@H](CC(=O)N1CCC(F)(F)CC1)c1nnc(C)n1-2 [Compound 132, (S)-2-(4-(4-chlorophenyl)-3,9-dimethyl-2-(pyridin-2-ylethynyl)-6H-thieno[3,2-f][1,2,4]triazolo[4,3-a][1,4]diazepin-6-yl)-1-(4,4-difluoropiperidin-1-yl)ethan-1-one] | 33.5 | 91.9 | 22.4 | 80 to 160 | – | – | – | – |
| Cc1c(C#Cc2cccnc2)sc2c1C(c1ccc(Cl)cc1)=N[C@@H](CC(=O)N1CCOCC1)c1nnc(C)n1-2 [Compound 118, (S)-2-(4-(4-chlorophenyl)-3,9-dimethyl-2-(pyridin-3-ylethynyl)-6H-thieno[3,2-f][1,2,4]triazolo[4,3-a][1,4]diazepin-6-yl)-1-morpholinoethan-1-one] | 27.7 | 103 | 6.1 | 9.2 | – | – | – | – |
| CC(=O)NNC(=O)C[C@@H]1N=C(c2ccc(Cl)cc2)c2c(sc(C#Cc3ccccn3)c2C)-n2c(C)nnc21 [Compound 128, (S)—N′-acetyl-2-(4-(4-chlorophenyl)-3,9-dimethyl-2-(pyridin-2-ylethynyl)-6H-thieno[3,2-f][1,2,4]triazolo[4,3-a][1,4]diazepin-6-yl)acetohydrazide] | 12.8 | 202 | 21.7 | 42.6 | – | – | – | – |
| Cc1c(C#Cc2ccccn2)sc2c1C(c1ccc(Cl)cc1)=N[C@@H](CC(=O)N1CC(F)(F)C1)c1nnc(C)n1-2 [Compound 127, (S)-2-(4-(4-chlorophenyl)-3,9-dimethyl-2-(pyridin-2-ylethynyl)-6H-thieno[3,2-f][1,2,4]triazolo[4,3-a][1,4]diazepin-6-yl)-1-(3,3-difluoroazetidin-1-yl)ethan-1-one] | 79 | 47 | 25.9 | 57 | – | – | – | – |
| Cc1c(C#Cc2cccnc2)sc2c1C(c1ccc(Cl)cc1)=N[C@@H](CC(=O)O)c1nnc(C)n1-2 [Compound 112, (S)-2-(4-(4-chlorophenyl)-3,9-dimethyl-2-(pyridin-3-ylethynyl)-6H-thieno[3,2-f][1,2,4]triazolo[4,3-a][1,4]diazepin-6-yl)acetic acid] | 23 | 1860 | 86.2 | 644 | – | – | – | – |
| Cc1c(C#Cc2cnn(CCC(N)=O)c2)sc2c1C(c1ccc(Cl)cc1)=N[C@@H](C)c1nnc(C)n1-2 [Compound 103, (S)-3-(4-((4-(4-chlorophenyl)-3,6,9-trimethyl-6H-thieno[3,2-f][1,2,4]triazolo[4,3-a][1,4]diazepin-2-yl)ethynyl)-1H-pyrazol-1-yl)propanamide] | – | – | – | – | 15.4 | 60 ± 20 | 4 | – |
| Cc1c(C#Cc2ccccn2)sc2c1C(c1ccc(Cl)cc1)=N[C@@H](CC(=O)N1CCC(O)CC1)c1nnc(C)n1-2 [Compound 123, (S)-2-(4-(4-chlorophenyl)-3,9-dimethyl-2-(pyridin-2-ylethynyl)-6H-thieno[3,2-f][1,2,4]triazolo[4,3-a][1,4]diazepin-6-yl)-1-(4-hydroxypiperidin-1-yl)ethan-1-one] | 59.4 | 61.1 | 20.4 | 71.6 | – | – | – | – |
| C#Cc1sc2c(c1C)C(c1ccc(Cl)cc1)=N[C@@H](C)c1nnc(C)n1-2 [compound 20, (S)-4-(4-chlorophenyl)-2-ethynyl-3,6,9-trimethyl-6H-thieno[3,2-f][1,2,4]triazolo[4,3-a][1,4]diazepine] | – | – | – | – | 41.1 | – | 103 | 16 |
| C#Cc1sc2c(c1C)C(c1ccc(Cl)cc1)=NCc1nnc(C)n1-2 [compound 19, 4-(4-chlorophenyl)-2-ethynyl-3,9-dimethyl-6H-thieno[3,2-f][1,2,4]triazolo[4,3-a][1,4]diazepine] | – | – | – | – | 227 | – | 191 | 2120 |
| Cc1nnc(C[C@@H]2N=C(c3ccc(Cl)cc3)c3c(sc(C#Cc4ccccn4)c3C)-n3c(C)nnc32)o1 [Compound 129, (S)-2-((4-(4-chlorophenyl)-3,9-dimethyl-2-(pyridin-2-ylethynyl)-6H-thieno[3,2-f][1,2,4]triazolo[4,3-a][1,4]diazepin-6-yl)methyl)-5-methyl-1,3,4-oxadiazole] | 27.6 | 6 | 9.4 | – | – | – | – | – |
| CNC(=O)CCn1cc(C#Cc2sc3c(c2C)C(c2ccc(Cl)cc2)=N[C@@H](C)c2nnc(C)n2-3)cn1 [Compound 104, (S)-3-(4-((4-(4-chlorophenyl)-3,6,9-trimethyl-6H-thieno[3,2-f][1,2,4]triazolo[4,3-a][1,4]diazepin-2-yl)ethynyl)-1H-pyrazol-1-yl)-N-methylpropanamide] | 45.1 | 40 ± 10 | 4.9 | – | – | – | – | – |

— patent US11046709B2, “Fused 1,4-diazepines as BET bromodomain inhibitors” (THE REGENTS OF THE UNIVERSITY OF MICHIGAN, priority 2017, dated 2021)
